Key:
Assay type in all cases: cell-based
TraR = target: T1, TraR (Agrobacterium tumefaciens, UniProt P33905); test: Agrobacterium tumefaciens KYC55 β-Galactosidase induction plate assay; conditions: 1 μl of 0.1 mg/ml spotted
T1 construct: expressed in transfected cells; host or cells: Agrobacterium tumefaciens KYC55
Procedure: (§1) Additional screens were performed as described above, except fluorescence was measured using the Wallac Victor2 plate reader with an excitation wavelength of 485 nm and emission detection at 515 nm. E. coli reporter induction assays were performed as described for P. putida. Chromobacterium violaceum CV026 and Agrobacterium tumefaciens KYC55 induction assays were performed by applying compounds to a lawn of bacteria on agar plates. C. violaceum CV026 inhibition assays were performed by applying compounds to a lawn of bacteria on agar plates containing synthetic N-3-oxohexanoyl-L-homoserine lactone.
Agrobacterium tumefaciens KYC55 is a mutant strain that is unable to produce AHLs. Exogenous AHLs must be added to induce the LuxR-type transcriptional regulator which is designated TraR in this strain. This strain contains a plasmid that encodes β-Galactosidase under the transcriptional control of TraR. Activation of TraR is indicated by the production of β-Galactosidase. Cultures were grown overnight at 28° C. in AMA broth. Induction assays were performed by applying compounds to a lawn of bacteria on AMA agar plates containing […] of X-Gal per ml. […] Activation of quorum sensing was qualitatively measured by observing the production the blue pigment that results from β-Galactosidase cleavage of the X-gal substrate in areas where compounds were applied. […]

CviR = target: T2, CviR (Chromobacterium violaceum, UniProt D3W065); test: Chromobacterium violaceum CV026 violacein plate assay; conditions: 1 μl of 0.1 mg/ml spotted
T2 construct: endogenous in cells; host or cells: Chromobacterium violaceum CV026
T2 sequence (D3W065 1-265): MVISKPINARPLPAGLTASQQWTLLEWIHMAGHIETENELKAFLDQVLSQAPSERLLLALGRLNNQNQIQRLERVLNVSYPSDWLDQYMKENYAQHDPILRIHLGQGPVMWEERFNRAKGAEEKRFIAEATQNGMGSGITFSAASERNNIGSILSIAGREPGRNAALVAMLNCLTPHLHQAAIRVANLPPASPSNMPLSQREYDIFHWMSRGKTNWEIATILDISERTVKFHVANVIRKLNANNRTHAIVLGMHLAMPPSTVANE
Procedure: as §1
Chromobacterium violaceum CV026 is a mutant that is unable to produce AHLs. Exogenous AHLs must be added to induce the LuxR-type transcriptional regulator which is designated CviR in this strain. Activation of CviR is indicated by the production of violacein. Cultures were grown overnight at 28° C. in LB media. […] Inhibition of quorum sensing was qualitatively measured by observing the lack of production of violacein in areas where compounds were applied. […] Activation of quorum sensing was qualitatively measured by observing the production of violacein in areas where compounds were applied. […]

[1] = target: T3, LasR transcriptional activator (Pseudomonas aeruginosa, UniProt P25084); test: P. putida F117 pKRC12 lasB-GFP reporter assay (secondary screens); conditions: compounds 10 μM, relative fluorescence (fluorescence divided by absorbance at 600 nm) as percent of AHL induced control; for % Activity of AHL Standard, 3 oxo C10HSL: 3oxoC10HSL 100 nM; for % Activity of AHL Standard, 3 oxo C12HSL: 3oxoC12HSL 50 nM
T3 construct: expressed in transfected cells; host or cells: Pseudomonas putida F117 carrying plasmid pKRC12 (lasR, PlasB-gfp)
T3 sequence (P25084 whole entry): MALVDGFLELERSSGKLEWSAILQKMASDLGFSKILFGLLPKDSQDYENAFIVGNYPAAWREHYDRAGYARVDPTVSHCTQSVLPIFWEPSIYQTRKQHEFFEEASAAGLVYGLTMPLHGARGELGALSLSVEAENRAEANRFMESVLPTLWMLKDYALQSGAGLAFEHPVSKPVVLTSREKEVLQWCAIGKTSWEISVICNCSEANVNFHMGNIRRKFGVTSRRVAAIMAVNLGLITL
Procedure: Additional screens were performed similar to screen described in the initial screen, except assays were performed in 96-well microtiter plates at a total volume of 100 μl. The reporter strain P. putida F117 pKRC12 was grown overnight at 28° C. in LB media, diluted with LB media to achieve an optical density of 0.05 at 600 nm (OD600), and 96 μl of cells were aliquoted to 96-well plates. Compounds were added at a final concentration of 100 nm or as otherwise indicated in each experiment and the bacterial cells were incubated with the compounds for approximately 30 minutes prior to the addition of 3oxoC10HSL or 3oxoC12HSL at a final concentration of 100 nM and 50 nM respectively or as indicated for each experiment. Fluorescence was measured at regular intervals after 3 hours using the Wallac Victor2 plate reader with an excitation wavelength of 485 nm and emission detection at 515 nm. Representative results are presented in FIGS. 6A and B and present the percentage of GFP expression activity as a function of expression of the AHL (3oxoC10 HSL) control. The numbers on the X axis refer to the Chembridge library reference number. Effects on growth of the antagonists were determined by measuring the optical density at 600 nm of growing bacterial cultures P. putida F 117 pKRC 12. […] (Reference for P. putida F117 pKRC12: Steidle, A., K. Sigl, R. Schuhegger, A. Ihring, M. Schmid, S. Gantner, M. Stoffels, K. Riedel, M. Givskov, A. Hartmann, C. Langebartels, and L. Eberl. 2001. Visualization of N-acylhomoserine lactone-mediated cell-cell communication between bacteria colonizing the tomato rhizosphere. Appl Environ Microbiol 67:5761-70). […]
This example presents representative results of experiments designed to test the activity of putative antagonists when challenged with different concentrations of synthetic AHLs, particularly 3oxoC12HSL. Assays were conducted with P. putida F117 pKRC12 reporter strain as described in the methods for secondary screens.
Following the initial screens to identify strong antagonists of the LasR transcriptional activator, further investigation of additional compounds in the Chembridge library was carried out. In particular, the experiments described in Example 1 identified three compounds that shared a thiocarbamate structure, as also shown in FIG. 16. To further investigate structure-activity relationships, the inventors examined the antagonist activity of 19 additional compounds with related thiocarbamate structures, using the procedures described in Example 1. The results are presented in Table 4, expressed as the percent activity of the AHL induced control. The % activity represents the relative fluorescence, which is the fluorescence observed in each assay divided by bacterial cell density as measured by absorbance at 600 nm. Compounds were assayed at a concentration of 10 μM. Assays were conducted with P. putida F117 pKRC12 reporter strain as described in the methods for secondary screens. The 3oxoC10HSL and 3oxoC12HSL were assayed at concentrations of 100 nM and 50 nM, respectively.

T1 sequence (P33905 whole entry): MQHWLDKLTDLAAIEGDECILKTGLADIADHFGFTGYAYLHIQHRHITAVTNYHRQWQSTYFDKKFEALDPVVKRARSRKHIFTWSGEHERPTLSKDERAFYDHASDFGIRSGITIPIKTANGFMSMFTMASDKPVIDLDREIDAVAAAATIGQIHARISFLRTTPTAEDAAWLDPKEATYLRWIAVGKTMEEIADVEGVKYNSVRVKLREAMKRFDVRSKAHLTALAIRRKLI

SMILES | Induction of β-Galactosidase (blue zone), control (TraR) | Activation of quorum sensing (violacein production), control (CviR) | % Activity of AHL Standard, 3 oxo C10HSL [1] [%] | % Activity of AHL Standard, 3 oxo C12HSL [1] [%]
CCCC(=O)CC(=O)N[C@H]1CCOC1=O [Compound 3oxoC6HSL, N-(3-oxohexanoyl)-L-homoserine lactone] | activated gene expression | activated gene expression | – | –
NC(=O)SCC(=O)Nc1ccc(Br)cc1 [Compound 15] | – | – | 39.00 | 70.10
COc1ccc(NC(=O)CSC(N)=O)c(OC)c1 [Compound 16] | – | – | 35.00 | 70.90
NC(=O)SCC(=O)Nc1cccc(I)c1 [Compound 17] | – | – | 67.20 | 81.20
Cc1ccc(NC(=O)CSC(N)=O)c(C)c1 [Compound 18] | – | – | 40.00 | 82.30
NC(=O)SCC(=O)Nc1ccccc1O [Compound 19] | – | – | 38.60 | 82.90
NC(=O)SCC(=O)Nc1ccc(Cl)c(Cl)c1 [Compound 20] | – | – | 40.50 | 87.70
NC(=O)SCC(=O)Nc1cccc(Cl)c1 [Compound 21] | – | – | 43.30 | 88.50
COC(=O)c1ccc(NC(=O)CSC(N)=O)cc1 [Compound 22] | – | – | 57.60 | 101.0
